Laboratory results as given in PubChem BioAssay AID2060906 (Molecular Pharmacology Branch, DTP, NCI, 2025).

Tested on: 485176-168-R4-J1-PDC complex spheroid growth
Experiment: Anticancer human tumor 485176-168-R4-J1-PDC patient-derived pancreatic adenocarcinoma cell line growth inhibition [RAS]
Conditions: for IC50: curve of first compound; for viability, T/C: stronger effect = lower value
Outline: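 Multi-cell-type spheroids: tumor cells plus HUVEC endothelial cells and mesenchymal stem cells. RAS-pathway inhibitors were combined with targeted agents, each dosed in half-log steps down from clinical Cmax, or from 10 microM when Cmax was unknown.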
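Also: spheroids exposed to compounds for seven days before readout.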
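For viability, T/C in this document: luminescence viability expressed relative to DMSO vehicle wells set as 100%.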

## Cc1nc(N2CCC3(CC2)COC(C)C3N)c(CO)nc1Sc1ccnc(N)c1Cl (centres undefined) + C=CC(=O)N1CCN(c2nc(OCC3CCCN3C)nc3c(F)c(-c4nc(N)cc(C)c4C(F)(F)F)c(Cl)cc23)C(C)C1
Second compound 0.00316 µM
  IC50: > 10000 nM
Second compound 0.01 µM
  IC50: > 10000 nM
Second compound 0.0316 µM
  IC50: > 10000 nM
Second compound 0.1 µM
  IC50: > 10000 nM
Second compound 0.316 µM
  IC50: > 10000 nM
Second compound 1 µM
  IC50: > 10000 nM
Second compound 0.00316 µM, first compound 0.0316 µM
  viability, T/C: 95.1%
Second compound 0.00316 µM, first compound 0.1 µM
  viability, T/C: 91.5%
Second compound 0.00316 µM, first compound 0.316 µM
  viability, T/C: 77.3%
Second compound 0.00316 µM, first compound 1 µM
  viability, T/C: 71.3%
Second compound 0.00316 µM, first compound 3.16 µM
  viability, T/C: 79.7%
Second compound 0.00316 µM, first compound 10 µM
  viability, T/C: 76%
Second compound 0.01 µM, first compound 0.0316 µM
  viability, T/C: 96.3%
Second compound 0.01 µM, first compound 0.1 µM
  viability, T/C: 76.5%
Second compound 0.01 µM, first compound 0.316 µM
  viability, T/C: 78.7%
Second compound 0.01 µM, first compound 1 µM
  viability, T/C: 74.2%
Second compound 0.01 µM, first compound 3.16 µM
  viability, T/C: 75.3%
Second compound 0.01 µM, first compound 10 µM
  viability, T/C: 90.6%
Second compound 0.0316 µM, first compound 0.0316 µM
  viability, T/C: 94%
Second compound 0.0316 µM, first compound 0.1 µM
  viability, T/C: 91.5%
Second compound 0.0316 µM, first compound 0.316 µM
  viability, T/C: 87.2%
Second compound 0.0316 µM, first compound 1 µM
  viability, T/C: 71.8%
Second compound 0.0316 µM, first compound 3.16 µM
  viability, T/C: 66.6%
Second compound 0.0316 µM, first compound 10 µM
  viability, T/C: 71.7%
Second compound 0.1 µM, first compound 0.0316 µM
  viability, T/C: 91.1%
Second compound 0.1 µM, first compound 0.1 µM
  viability, T/C: 92.8%
Second compound 0.1 µM, first compound 0.316 µM
  viability, T/C: 82.5%
Second compound 0.1 µM, first compound 1 µM
  viability, T/C: 65.1%
Second compound 0.1 µM, first compound 3.16 µM
  viability, T/C: 77.6%
Second compound 0.1 µM, first compound 10 µM
  viability, T/C: 74.6%
Second compound 0.316 µM, first compound 0.0316 µM
  viability, T/C: 101%
Second compound 0.316 µM, first compound 0.1 µM
  viability, T/C: 99.8%
Second compound 0.316 µM, first compound 0.316 µM
  viability, T/C: 81.8%
Second compound 0.316 µM, first compound 1 µM
  viability, T/C: 83.6%
Second compound 0.316 µM, first compound 3.16 µM
  viability, T/C: 74.2%
Second compound 0.316 µM, first compound 10 µM
  viability, T/C: 71%
Second compound 1 µM, first compound 0.0316 µM
  viability, T/C: 103%
Second compound 1 µM, first compound 0.1 µM
  viability, T/C: 91%
Second compound 1 µM, first compound 0.316 µM
  viability, T/C: 80.4%
Second compound 1 µM, first compound 1 µM
  viability, T/C: 73.2%
Second compound 1 µM, first compound 3.16 µM
  viability, T/C: 81.5%
Second compound 1 µM, first compound 10 µM
  viability, T/C: 76.5%

## CC(C)n1nc(-c2ccc3oc(N)nc3c2)c2c(N)ncnc21 + CCn1c(-c2cc(N3CCN(C)CC3)cnc2C(C)OC)c2c3cc(ccc31)-c1csc(n1)CC(NC(=O)C1CC1C)C(=O)N1CCCC(N1)C(=O)OCC(C)(C)C2
Second compound 0.000949 µM
  IC50: 20.3 nM
Second compound 0.003 µM
  IC50: 23 nM
Second compound 0.00949 µM
  IC50: 18.5 nM
Second compound 0.03 µM
  IC50: 13.8 nM
Second compound 0.0949 µM
  IC50: 10.9 nM
Second compound 0.3 µM
  IC50: 9.46 nM
Second compound 0.000949 µM, first compound 0.000316 µM
  viability, T/C: 98.5%
Second compound 0.000949 µM, first compound 0.001 µM
  viability, T/C: 93.7%
Second compound 0.000949 µM, first compound 0.00316 µM
  viability, T/C: 76.8%
Second compound 0.000949 µM, first compound 0.01 µM
  viability, T/C: 70.4%
Second compound 0.000949 µM, first compound 0.0316 µM
  viability, T/C: 37.4%
Second compound 0.000949 µM, first compound 0.1 µM
  viability, T/C: 19.2%
Second compound 0.003 µM, first compound 0.000316 µM
  viability, T/C: 96.8%
Second compound 0.003 µM, first compound 0.001 µM
  viability, T/C: 89.6%
Second compound 0.003 µM, first compound 0.00316 µM
  viability, T/C: 93.3%
Second compound 0.003 µM, first compound 0.01 µM
  viability, T/C: 65.9%
Second compound 0.003 µM, first compound 0.0316 µM
  viability, T/C: 44.4%
Second compound 0.003 µM, first compound 0.1 µM
  viability, T/C: 18.5%
Second compound 0.00949 µM, first compound 0.000316 µM
  viability, T/C: 97.1%
Second compound 0.00949 µM, first compound 0.001 µM
  viability, T/C: 89%
Second compound 0.00949 µM, first compound 0.00316 µM
  viability, T/C: 76.9%
Second compound 0.00949 µM, first compound 0.01 µM
  viability, T/C: 63.9%
Second compound 0.00949 µM, first compound 0.0316 µM
  viability, T/C: 38.4%
Second compound 0.00949 µM, first compound 0.1 µM
  viability, T/C: 19.1%
Second compound 0.03 µM, first compound 0.000316 µM
  viability, T/C: 95.9%
Second compound 0.03 µM, first compound 0.001 µM
  viability, T/C: 81%
Second compound 0.03 µM, first compound 0.00316 µM
  viability, T/C: 63%
Second compound 0.03 µM, first compound 0.01 µM
  viability, T/C: 63.3%
Second compound 0.03 µM, first compound 0.0316 µM
  viability, T/C: 34.8%
Second compound 0.03 µM, first compound 0.1 µM
  viability, T/C: 23.6%
Second compound 0.0949 µM, first compound 0.000316 µM
  viability, T/C: 94.3%
Second compound 0.0949 µM, first compound 0.001 µM
  viability, T/C: 84.8%
Second compound 0.0949 µM, first compound 0.00316 µM
  viability, T/C: 61.5%
Second compound 0.0949 µM, first compound 0.01 µM
  viability, T/C: 57.3%
Second compound 0.0949 µM, first compound 0.0316 µM
  viability, T/C: 30.9%
Second compound 0.0949 µM, first compound 0.1 µM
  viability, T/C: 17.4%
Second compound 0.3 µM, first compound 0.000316 µM
  viability, T/C: 81.1%
Second compound 0.3 µM, first compound 0.001 µM
  viability, T/C: 77%
Second compound 0.3 µM, first compound 0.00316 µM
  viability, T/C: 68.2%
Second compound 0.3 µM, first compound 0.01 µM
  viability, T/C: 50.2%
Second compound 0.3 µM, first compound 0.0316 µM
  viability, T/C: 25.9%
Second compound 0.3 µM, first compound 0.1 µM
  viability, T/C: 16.1%
